A summary of the method of series [1]: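 Each compound (1 uM) is incubated in duplicate with 0.5 mg/mL liver microsomal protein from dog, rat or human plus NADPH-regenerating system. Samples taken at 2, 12, 25, 45 and 65 minutes are deproteinised and quantified by LC/MS/MS. Half-life gives Clint.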
Series [2] concerns HIV-1 (IIIB) in MT-4 cells. As to the kind of experiment: MT-4 HIV assay. Format: cell-based. An outline of the steps: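 Antiviral activity was read by Cell Titer Glo after a 5-day, 37 °C culture of MT-4 cells pre-infected with a 1:250 dilution of HIV-1 (IIIB). Compounds were tested as threefold dilution series in complete RPMI. Controls were no drug, mock infection and 5 uM AZT.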

The nature of series [3]: 3H Human Predicted Clearance Assay (tritiated analogs). Format: in vitro ADME. Details: unit not given here. As to the method:
3H Human Predicted Clearance Assay:
For certain compounds, tritiated analogs (H^3) were prepared to further determined their human predicted clearance with increased resolution. Those studies were performed as described above using the tritiated analogs. Data from those compounds is found in Table 2 below and reported in FIG. 1 (note ATV and DRV were not tritiated).

A short description of series [4]: in vivo. As to the method:
Pharmacokinetic Profiling Dog PK
Each dosing group consisted of three non-naïve male beagle dogs. At dosing, the animals weighed between 9 to 12 kg. The animals were fasted overnight prior to dose administration and up to four hours after dosing. The test article was administered by intravenous infusion over 30-minutes. The rate of infusion was adjusted according to the body weight of each animal to deliver a dose of 0.5 or 1.0 mg/kg. For the oral dosing group, the test article was administered by oral gavage at a dose volume of 2 mL/kg.
Serial venous blood samples (approximately 1.0 mL each) were collected at predose and 0.25, 0.48, 0.58, 0.75, 1.0, 1.5, 2, 4, 8, 12 and 24 hours post dose from each animal for the IV dosing group; blood samples were collected at predose, 0.25, 0.50, 1, 2 4, 6, 8,12 and 24 hours post dose for the oral dosing group. The blood samples were collected into Vacutainer™ tubes containing EDTA-K2 as the anti-coagulant and were immediately placed on wet ice pending centrifugation for plasma. An LC/MS/MS method was used to measure the concentration of test compound in plasma. Non-compartmental pharmacokinetic analysis was performed on the plasma concentration-time data. VSS=apparent volume of distribution, t1/2=half life, F=oral bioavailability.

The nature of series [5]: in vivo. The settings on record: rat, in vivo. As for the experimental part:
Each dosing group consisted of 3 male naïve SD Rats. At dosing, the animals weighed between 0.27 to 0.32 kg. The animals were fasted overnight prior to dose administration. The test article was administered by intravenous infusion over 30 min. The rate of infusion was adjusted according to the body weight of each animal to deliver a dose of 0.5 or 1.0 mg/kg. For the oral dosing group, the test article was administered to animals by oral gavage administration. Serial venous blood samples (approximately 0.30 mL each) were taken at predose and 0.25, 0.48, 0.58, 0.75, 1.5, 3, 6, 8, 12 and 24 hours post dose for the IV dosing group animals. Blood samples were taken at predose, 0.25, 0.50, 1, 2, 4, 6, 8, 12 and 24 hours post dose for the oral group animals. The blood samples were collected into Vacutainer™ tubes containing EDTA-K2 as the anti-coagulant and were immediately placed on wet ice pending centrifugation for plasma. An LC/MS/MS method was used to measure the concentration of test compound in plasma. Non-compartmental pharmacokinetic analysis was performed on the plasma concentration-time data.

Setting [6] is: human liver microsomes 0.5 mg/mL, 1 uM compound, NADPH.
Setting [7] is: rat liver microsomes 0.5 mg/mL, 1 uM compound, NADPH.
[8] abbreviates: Human immunodeficiency virus 1, MT4, 120 h, HIV-1 (IIIB), MT-4 cells, 5 days, Cell Titer Glo, read-out: EC50.
Where [9] appears, read: tritiated analogs, human liver microsomes.
Setting [10] is: Human immunodeficiency virus 1, MT4, 120 h.

Like-named read-outs stand apart in the source and are kept apart here.

The text below walks through data of patent publication US10294234B2, “HIV inhibitor compounds” (priority 2017, dated 2019).

In general, EC50 refers to the concentration giving half of the maximal effect. On to `COC(=O)N[C@H](C(=O)N[C@@H](Cc1ccc(C#Cc2cnc(N3CCN(C4COC4)CC3)nc2)cc1)[C@@H](O)CN(Cc1c(F)cc(-c2ncccn2)cc1F)NC(=O)[C@@H](NC(=O)OC)C(C)(C)C(F)(F)F)C(C)(C)C(F)(F)F` [Example 88, Methyl ((5S,8S,9S,14S)-11-(2,6-difluoro-4-(pyrimidin-2-yl)benzyl)-16,16,16-trifluoro-9-hydroxy-15,15-dimethyl-8-(4-((2-(4-(oxetan-3-yl)piperazin-1-yl)pyrimidin-5-yl)ethynyl)benzyl)-3,6,13-trioxo-5-(1,1,1-trifluoro-2-methylpropan-2-yl)-2-oxa-4,7,11,12-tetraazahexadecan-14-yl)carbamate], for which the “Dog. Pred. Cl.” value in series [1] (dog liver microsomes 0.5 mg/mL, 1 uM compound, NADPH) is on record as 1.63 L/H/kg. In addition, the “Human Pred Cl.” value in series [1] (setting [6]) is less than 0.11 L/H/kg. In addition, the “Rat. Pred. Cl.” value in series [1] (setting [7]) is on record as less than 0.18 L/H/kg. The EC50 in series [2] (setting [8]) came to 4.57 nM. In addition, in series [3] (setting [9]), the “3H Human Predicted Cl.” value is reported as 0.08.

Turning to “Methyl ((5S,8S,9S,14S)-11-(4-(1-(difluoromethyl)-1H-pyrazol-3-yl)-2,6-difluorobenzyl)-16,16,16-trifluoro-9-hydroxy-15,15-dimethyl-8-(4-((6-(4-(oxetan-3-yl)piperazin-1-yl)pyridin-3-yl)ethynyl)benzyl)-3,6,3-trioxo-5-(1,1,1-trifluoro-2-methylpropan-2-yl)-2-oxa-4,7,11,12-tetraazahexadecan-14-yl)carbamate [Example 112]”, the “Human Pred Cl.” value in series [1] (setting [6]) is less than 0.11 L/H/kg. In addition, in series [1] (setting [7]), the “Rat. Pred. Cl.” value was determined as 0.32 L/H/kg. For the same compound, the EC50 in series [2] (HIV-1 (IIIB), MT-4 cells, 5 days, Cell Titer Glo, read-out: EC50) was 4.45 nM. Moreover, the “3H Human Predicted Cl.” value in series [3] (setting [9]) is reported as 0.11.

Take `COC(=O)N[C@H](C(=O)N[C@@H](Cc1ccc(C#Cc2ccc(N3CC4CC(C3)N4C3COC3)nc2)cc1)[C@@H](O)CN(Cc1c(F)cc(-c2ccn(C(F)F)n2)cc1F)NC(=O)[C@@H](NC(=O)OC)C(C)(C)C(F)(F)F)C(C)(C)C(F)(F)F` [Example 176, Methyl ((5S,8S,9S,14S)-11-(4-(1-(difluoromethyl)-1H-pyrazol-3-yl)-2,6-difluorobenzyl)-16,16,16-trifluoro-9-hydroxy-15,15-dimethyl-8-(4-((6-(6-(oxetan-3-yl)-3,6-diazabicyclo[3.1.1]heptan-3-yl)pyridin-3-yl)ethynyl)benzyl)-3,6,13-trioxo-5-(1,1,1-trifluoro-2-methylpropan-2-yl)-2-oxa-4,7,11,12-tetraazahexadecan-14-yl)carbamate]: in series [1] (human, microsomes), the “Human Pred Cl.” value is on record as less than 0.11 L/H/kg. In addition, the “Rat. Pred. Cl.” value in series [1] (rat, microsomes) was 0.75 L/H/kg. Also, the EC50 in series [2] (setting [8]) is 3.36 nM. Further, the “3H Human Predicted Cl.” value in series [3] (human, 1 uM) is given as 0.09.

Take `COC(=O)N[C@H](C(=O)N[C@@H](Cc1ccc(C#Cc2ccc(N3CC4CCC(C3)N4C3COC3)nc2)cc1)[C@@H](O)CN(Cc1c(F)cc(-c2nnc(C3CC3)s2)cc1F)NC(=O)[C@@H](NC(=O)OC)C(C)(C)C(F)(F)F)C(C)(C)C(F)(F)F` [Example 75, Methyl ((5S,8S,9S,14S)-11-(4-(5-cyclopropyl-1,3,4-thiadiazol-2-yl)-2,6-difluorobenzyl)-16,16,16-trifluoro-9-hydroxy-15,15-dimethyl-8-(4-((6-(8-(oxetan-3-yl)-3,8-diazabicyclo[3.2.1]octan-3-yl)pyridin-3-yl)ethynyl)benzyl)-3,6,13-trioxo-5-(1,1,1-trifluoro-2-methylpropan-2-yl)-2-oxa-4,7,11,12-tetraazahexadecan-14-yl)carbamate]: the “Human Pred Cl.” value in series [1] (human, microsomes) is recorded as less than 0.11 L/H/kg. The “Rat. Pred. Cl.” value in series [1] (rat, microsomes) was 0.21 L/H/kg. For the same compound, in series [2] (setting [8]), the EC50 was found to be 3.41 nM. Moreover, in series [3] (human, 1 uM), the “3H Human Predicted Cl.” value is 0.11.

Consider `COC(=O)N[C@H](C(=O)N[C@@H](Cc1ccc(C#Cc2ccc(N3CCN4CCOC[C@H]4C3)nc2)cc1)[C@@H](O)CN(Cc1c(F)cc(-c2ccn(C(F)F)n2)cc1F)NC(=O)[C@@H](NC(=O)OC)C(C)(C)C(F)(F)F)C(C)(C)C(F)(F)F` [Example 51, methyl ((5S,8S,9S,14S)-11-(4-(1-(difluoromethyl)-1H-pyrazol-3-yl)-2,6-difluorobenzyl)-16,16,16-trifluoro-8-(4-((6-((R)-hexahydropyrazino[2,1-c][1,4]oxazin-8(1H)-yl)pyridin-3-yl)ethynyl)benzyl)-9-hydroxy-15,15-dimethyl-3,6,13-trioxo-5-(1,1,1-trifluoro-2-methylpropan-2-yl)-2-oxa-4,7,11,12-tetraazahexadecan-14-yl)carbamate], for which the “Human Pred Cl.” value in series [1] (setting [6]) is given as less than 0.11 L/H/kg. In addition, the concentration for a half-maximal effect (EC50) in series [2] (setting [10]) turned out to be 2.8 nM. Also, the “3H Human Predicted Cl.” value in series [3] (setting [9]) is 0.11.

Consider `COC(=O)N[C@H](C(=O)N[C@@H](Cc1ccc(C#Cc2ccc(N3C[C@H]4C[C@@H]3CN4C3COC3)nc2)cc1)[C@@H](O)CN(Cc1c(F)cc(-c2ccn(C(F)F)n2)cc1F)NC(=O)[C@@H](NC(=O)OC)C(C)(C)C(F)(F)F)C(C)(C)C(F)(F)F` [Example 173, Methyl ((5S,8S,9S,14S)-11-(4-(1-(difluoromethyl)-1H-pyrazol-3-yl)-2,6-difluorobenzyl)-16,16,16-trifluoro-9-hydroxy-15,15-dimethyl-8-(4-((6-((1R,4R)-5-(oxetan-3-yl)-2,5-diazabicyclo[2.2.1]heptan-2-yl)pyridin-3-yl)ethynyl)benzyl)-3,6,13-trioxo-5-(1,1,1-trifluoro-2-methylpropan-2-yl)-2-oxa-4,7,11,12-tetraazahexadecan-14-yl)carbamate], for which the “Human Pred Cl.” value in series [1] (setting [6]) is on record as less than 0.11 L/H/kg. The “Rat. Pred. Cl.” value in series [1] (setting [7]) turned out to be 1.2 L/H/kg. For the same compound, in series [2] (setting [10]), it took 2.55 nM to reach a half-maximal effect (EC50). The “3H Human Predicted Cl.” value in series [3] (setting [9]) is 0.14.

The term Vd denotes the apparent volume that relates the amount in the body to the concentration in plasma or blood. Turning to `COC(=O)N[C@H](C(=O)N[C@@H](Cc1ccc(C#Cc2ccc(N3CC4CCC(C3)N4C3COC3)nc2)cc1)[C@@H](O)CN(Cc1ccc(-c2cnn(C(F)F)c2)cc1)NC(=O)[C@@H](NC(=O)OC)C(C)(C)C(F)(F)F)C(C)(C)C(F)(F)F` [Example 63, Methyl ((5S,8S,9S,14S)-11-(4-(1-(difluoromethyl)-1H-pyrazol-4-yl)benzyl)-16,16,16-trifluoro-9-hydroxy-15,15-dimethyl-8-(4-((6-(8-(oxetan-3-yl)-3,8-diazabicyclo[3.2.1]octan-3-yl)pyridin-3-yl)ethynyl)benzyl)-3,6,13-trioxo-5-(1,1,1-trifluoro-2-methylpropan-2-yl)-2-oxa-4,7,11,12-tetraazahexadecan-14-yl)carbamate], the “Dog. Pred. Cl.” value in series [1] (dog, microsomes) was found to be 0.86 L/H/kg. Besides, in series [1] (human, microsomes), the “Human Pred Cl.” value was less than 0.11 L/H/kg. Moreover, the “Rat. Pred. Cl.” value in series [1] (rat, microsomes) is on record as 0.2 L/H/kg. Besides, the “DOG IV CL” value in the series “in vivo [4]” (dog, in vivo, iv) was 4.67 mL/min/kg. For the same compound, in the series “in vivo [4]” (male beagle dogs, IV infusion over 30 minutes, 0.5 or 1.0 mg/kg), the “DOG IV T1/2” value came to 8.16 h. Further, the Vd in the series “in vivo [4]” (male, beagle, dog, in vivo, iv) came to 2.4 L/kg. The compound also came in with a Vd in “in vivo [5]” (male, SD, iv) of 5.46 L/kg. Moreover, the “RAT PO F” value in the series “in vivo [5]” (male, SD, po, 2.5 mg/kg) is 19%. In “in vivo [5]” (iv), the “RAT IV CL” value came out at 7 mL/min/kg and the “RAT IV T1/2” value was found to be 11.9 h. For the same compound, the EC50 in series [2] (setting [8]) was found to be 4.25 nM.

For the compound `COC(=O)N[C@H](C(=O)N[C@@H](Cc1ccc(C#Cc2cnc(N3CC4CCC(C3)N4C3COC3)c(C)c2)cc1)[C@@H](O)CN(Cc1c(F)cc(-c2cnn(C(F)F)c2)cc1F)NC(=O)[C@@H](NC(=O)OC)C(C)(C)C(F)(F)F)C(C)(C)C(F)(F)F` [Example 153, Methyl ((5S,8S,9S,14S)-11-(4-(1-(difluoromethyl)-1H-pyrazol-4-yl)-2,6-difluorobenzyl)-16,16,16-trifluoro-9-hydroxy-15,15-dimethyl-8-(4-((5-methyl-6-(8-(oxetan-3-yl)-3,8-diazabicyclo[3.2.1]octan-3-yl)pyridin-3-yl)ethynyl)benzyl)-3,6,13-trioxo-5-(1,1,1-trifluoro-2-methylpropan-2-yl)-2-oxa-4,7,11,12-tetraazahexadecan-14-yl)carbamate], the “3H Human Predicted Cl.” value in series [3] (human, 1 uM) was 0.43.
